Data on three compounds can be found in patent US20250296937A1, “CYCLIC BISBENZYL TETRAHYDROISOQUINOLINE COMPOUND, AND PREPARATION METHOD THEREFOR AND USE THEREOF” (Shanghai Institute of Materia Medica, Chinesse Academy of …, priority 2021, published 2025).

“Also recorded” adds a separate entry of the source. Where two headings read alike, the source gives them in different places.

Data set [1] concerns 2019 novel coronavirus (SARS-CoV-2) original strain. The experiment in a line: Replication inhibitory activity against SARS-CoV-2 original strain in Vero E6 cells (qRT-PCR). The format is cell-based. Conditions: for EC50: read-out: Inhibition against viral replication of the original strain EC50. In general terms: Real-time PCR tracks product formation cycle by cycle.
Data set [2] deals with novel coronavirus envelope protein (2-E) ion channel (Severe acute respiratory syndrome coronavirus 2, UniProt P0DTC4). The experiment in a line: Novel coronavirus envelope protein (2-E) ion channel activity test, planar lipid bilayer (BLM). Format: biochemical, SARS-CoV-2. Conditions: room temperature, 1, 10, 50, 100 μM, read-out: Inhibition against 2-E ion channels IC50.
For a further data set, the system named is Vero E6 cells. The experiment in a line: Cytotoxicity test on Vero E6 cells (CCK8). Format: cell-based. The procedure: (§1) In this embodiment, the half toxicity concentration of each embodiment on Vero E6 cells was determined by CCK8 kit analysis (CC50).
Data set [3] has as its system IL-6, IL-1β, CXCL9 mRNA in Raw 264.7 cells. The experiment in a line: mRNA levels of inflammatory indicators in LPS-induced inflammation model of Raw264.7 cells (Q-PCR). The format is cell-based. Conditions: 1 μg/ml LPS, 1 μM compound, 16 hours. Here is the method: (§2) In this example, the effect of the compounds of the present invention on the inflammation level of the LPS-induced inflammation model of Raw 264.7 cells was analyzed by cell viability in combination with inflammatory factors; cell viability was analyzed by CCK-8 assay; and mRNA expression levels of inflammation-related indicators were detected by a real-time quantitative PCR (Q-PCR) method. Raw 264.7 cells were purchased from ATCC; CCK-8 kit was purchased from Meilunbio, item no. MA0218-3; LPS was purchased from Sigma, item no. L2630.
(§3) Experimental methods: first, 5*10^4 cells/well Raw 264.7 cells were placed in 12-well plates and incubated overnight. On the second day, 0.1% DMSO was added to the control cells, 1 μg/ml LPS as well as 0.1% DMSO was added to the model group, 1 μg/ml LPS as well as 1 μM of the compounds (oxyacanthine hydrochloride (oxy), 1, 2, tetrandrine (tet), 3, 4, 6, 58) was added to the treatment group, and the 12-well plates were sterilized and incubated in a constant temperature incubator for 16 hours. Cellular mRNA was extracted by lysis using Trizol (Yisheng, 10606ES60) and detected by real-time quantitative PCR after reverse transcription.

The subject of data set [4] is inflammatory factor mRNA in Raw 264.7 cells. The experiment in a line: mRNA levels of inflammatory indicators in TNF-α-induced inflammation model of Raw264.7 cells (Q-PCR). The format is cell-based. The following applies: 10 ng/ml TNF-α, 1 μM compound, 16 hours. Here is the method: (§4) In this embodiment, the effect of compounds on TNF-α-induced inflammation levels in Raw 264.7 cells was analyzed by cell viability combined with inflammatory factor expression levels; cell viability was analyzed by CCK-8 assay; and mRNA expression levels of inflammation-associated indicators were detected by real-time quantitative PCR (Q-PCR) method. Raw 264.7 cells were purchased from ATCC, CCK-8 kit was purchased from Meilunbio, item number MA0218-3, TNF-α was purchased from Merck, item no. GF314.
as §3, with “10 ng/ml TNF-α” for “1 μg/ml LPS”, “transcription, the primers are the same as in Table 2.” for “transcription.”

For data set [5], the system named is TNF-α and IL1β mRNA in A549 cells. The experiment in a line: mRNA levels of injury indicators in TNF-α-induced A549 cell injury (Q-PCR). The format is cell-based. The following applies: 10 ng/ml TNF-α, 1 μM compound, 24 hours. The procedure: In this example, cell viability combined with cell death-associated molecules were used to analyze the effect of compounds on the level of TNF-α-induced injury in A549 lung epithelial cells. Cell injury was observed by microscopy; cell viability was analyzed by CCK-8 assay; and mRNA expression levels of injury-related indicators were detected by real-time quantitative PCR (Q-PCR) method. A549 cells were purchased from ATCC, CCK-8 kit was purchased from Meilunbio, item no. MA0218-3, and LPS was purchased from Sigma, item no. L2630.
Experimental methods: first, 5*10^4 cells/well A549 cells were placed in 12-well plates and incubated overnight. On the second day, 0.1% DMSO was added to the control cells, 10 ng/ml TNF-α as well as 0.1% DMSO was added to the model group, 10 ng/ml TNF-α as well as 1 μM of the compounds (oxy, 1, 2, tet, 3, 4, 6, 58) was added to the treatment group, and the 12-well plates were sterilized and incubated in a constant temperature incubator for 24 hours. Cellular mRNA was extracted by lysis using Trizol (Yisheng, 10606ES60) and detected by real-time quantitative PCR after reverse transcription.

For data set [6], the system named is A549 lung epithelial cells. The experiment in a line: Anti TGF-β1-induced fibrosis assay in A549 lung epithelial cells (microscopy, Western Blot). Format: cell-based. The following applies: 10 ng/ml TGF-β1, 1 μM compound. The procedure: Cell injury was observed by microscopic observation; cell viability was analyzed by CCK-8 assay; and protein expression levels of fibrosis-related indicators were detected by Western Blot method. A549 cells were purchased from ATCC; CCK-8 kit was purchased from Meilunbio, item number MA0218-3; TGF-β1 was purchased from MCE, item number HY-P70543; primary antibodies: Collagen was purchased from ARG21965, item no. arigobio; α-smooth muscle actin was purchased from CST, item no. mAb #19245; VIMENTN was purchased from CST, item no. mAb #5741; GAPDH was purchased from Yeasen, item no. 30201ES20.
Experimental methods: first, 8000 cells/well A549 cells were placed in 96-well plates and incubated overnight. On the second day, 0.1% DMSO was added to the control cells, 10 ng/ml TGF-β1 as well as 0.1% DMSO was added to the model group, 10 ng/ml TGF-β1 as well as 1 μM of the compounds (oxy, 1, 2, tet, 3, 4, 6, 58) was added to the treatment group, and the 96-well plates were sterilized and incubated in a constant temperature incubator for 72 hours. Finally, cell injury and growth were observed using a microscope; the viability of the cells was detected by CCK-8 kit.
(A western blot detects proteins with antibodies after separation by electrophoresis.)

The conditions of data set [7]: cited from earlier work.
For another data set, the target named is T1, hERG potassium channel (Homo sapiens, UniProt Q12809).
T1 construct: expressed in transfected cells
The experiment in a line: hERG potassium channel whole-cell membrane clamp in CHO cells. Format: cell-based. Conditions: CHO cells stably expressing hERG, whole-cell membrane clamp. The procedure: Compounds were given for at least 1 min for each tested concentration, and at least 2 cells (n≥2) were tested per concentration.
(hERG is a cardiac potassium channel; its block is linked to QT prolongation.)

Data set [8] in a line: Cytotoxicity test on Vero E6 cells (CCK8). Format: cell-based. Conditions: African green monkey; Vero E6 cells, CCK8 kit. The procedure: as §1
Data set [9] has as its system Raw 264.7 cells. The experiment in a line: Cell viability in LPS-induced inflammation model of Raw 264.7 cells (CCK-8). Format: cell-based. Conditions: 1 μg/ml LPS, 1 μM compound, 16 hours. Here is the method: as §2
Experimental methods: first, 8000 cells/well Raw 264.7 cells were placed in 96-well plates and incubated overnight. On the second day, 0.1% DMSO was added to the control cells, 1 μg/ml LPS as well as 0.1% DMSO was added to the model group, 1 μg/ml LPS as well as 1 μM of the compounds (oxyacanthine hydrochloride (oxy), 1, 2, tetrandrine (tet), 3, 4, 6, 58) was added to the treatment group, and the 96-well plates were sterilized and incubated in a constant temperature incubator for 16 hours. Finally, the viability of the cells was detected using the CCK-8 kit.

The test system of data set [10] is Raw 264.7 cells. The experiment in a line: Cell viability in TNF-α induced inflammation model of Raw 264.7 cells (CCK-8). The format is cell-based. The following applies: 10 ng/ml TNF-α, 1 μM compound, 16 hours. The procedure:
as §4
Experimental methods: first, 8000 cells/well Raw 264.7 cells were placed in 96-well plates and incubated overnight. On the second day, 0.1% DMSO was added to the control cells, 10 ng/ml TNF-α as well as 0.1% DMSO was added to the model group, 10 ng/ml TNF-α as well as 1 μM of the compounds (oxyacanthine hydrochloride (oxy), 1, 2, tetrandrine (tet), 3, 4, 6, 58) was added to the treatment group, and the 96-well plates were sterilized and incubated in a constant temperature incubator for 16 hours. Finally, the viability of the cells was detected using the CCK-8 kit.

Another data set relates to ALM12 hepatocytes. The experiment in a line: Anti H2O2-induced necrotic injury assay in ALM12 hepatocytes (microscopy, CCK-8). The following applies: 2 mM H2O2, 1 μM compound, 3 hours, microscope and CCK-8. The format is cell-based. The procedure: In this example, the effect of the compounds of the present invention on the level of necrotic injury induced by H2O2 in ALM12 hepatocytes was analyzed by microscopic morphological observations, cell viability in combination with cell death-associated molecules. Cell viability was analyzed by CCK-8 assay. ALM12 cells were cultured in 1640 medium (gibco, c11995500BT)+10% FBS (gibco, 10099141C) in a constant temperature incubator at 37° C., 5% CO2; the CCK-8 kit was purchased from Meilunbio, item no. MA0218-3; H2O2 was purchased from Sinopharm Chemical Reagent Co. item no. 10011208.
Experimental methods: first, 8000 cells/well ALM12 cells were placed in 96-well plates and incubated overnight. On the second day, 0.1% DMSO was added to the control cells, 2 mM H2O2 as well as 0.1% DMSO was added to the model group, 2 mM H2O2 as well as 1 μM of the compounds (oxy, 1, 2, tet, 3, 4, 6, 58) was added to the treatment group, and the 96-well plates were sterilized and incubated in a constant temperature incubator for 3 hours. Finally, cell injury and growth were observed using a microscope; the viability of the cells was detected by CCK-8 kit.

The test system of data set [11] is Th1/Th17 differentiation of CD4+T cells. The experiment in a line: CD4+T cell in vitro differentiation assay (Th1 IFN-γ / Th17 IL-17A, flow cytometry). Conditions: 10 μM, 72 h, IFN-γ/IL-17A by flow cytometry.
Method: CD4^+T cell isolation: CD4^+T cells were isolated from the spleens of 7-8 week old C57BL/6 mice using the Mouse CD4^+T Cell Sorting Kit (Dynabeads® Untouched™ Mouse CD4 Cells Isolation Kit, Invitrogen, Catalog nos: 11415D).
In vitro differentiation of CD4^+T cells: the isolated CD4^+T cells were inoculated into 96-well plates while different concentrations of compounds were added, and then corresponding cytokines and antibodies were added: anti-CD28 (2 μg/ml), anti-CD3 (2 μg/ml), Anti-IL-4 (10 μg/ml), IL-12 (10 ng/ml), Anti-IFN-γ (10 μg/ml), anti-IL-4 (10 μg/ml), IL-6 (30 ng/ml), TGF-β1 (3 ng/ml), IL-10 (10 ng/ml), IL-23 (10 ng/ml), and TNF-α (10 ng/ml). Cells were cultured in 5% CO2 at 37° C. in a cell culture chamber for 72 h. Cells were collected, stained intracellularly, analyzed by flow cytometry, and tested for IFN-γ/IL-17A content to assess the effect of compounds on CD4^+T differentiation into Th1/Th17 in vitro.

T1 sequence (Q12809 whole entry): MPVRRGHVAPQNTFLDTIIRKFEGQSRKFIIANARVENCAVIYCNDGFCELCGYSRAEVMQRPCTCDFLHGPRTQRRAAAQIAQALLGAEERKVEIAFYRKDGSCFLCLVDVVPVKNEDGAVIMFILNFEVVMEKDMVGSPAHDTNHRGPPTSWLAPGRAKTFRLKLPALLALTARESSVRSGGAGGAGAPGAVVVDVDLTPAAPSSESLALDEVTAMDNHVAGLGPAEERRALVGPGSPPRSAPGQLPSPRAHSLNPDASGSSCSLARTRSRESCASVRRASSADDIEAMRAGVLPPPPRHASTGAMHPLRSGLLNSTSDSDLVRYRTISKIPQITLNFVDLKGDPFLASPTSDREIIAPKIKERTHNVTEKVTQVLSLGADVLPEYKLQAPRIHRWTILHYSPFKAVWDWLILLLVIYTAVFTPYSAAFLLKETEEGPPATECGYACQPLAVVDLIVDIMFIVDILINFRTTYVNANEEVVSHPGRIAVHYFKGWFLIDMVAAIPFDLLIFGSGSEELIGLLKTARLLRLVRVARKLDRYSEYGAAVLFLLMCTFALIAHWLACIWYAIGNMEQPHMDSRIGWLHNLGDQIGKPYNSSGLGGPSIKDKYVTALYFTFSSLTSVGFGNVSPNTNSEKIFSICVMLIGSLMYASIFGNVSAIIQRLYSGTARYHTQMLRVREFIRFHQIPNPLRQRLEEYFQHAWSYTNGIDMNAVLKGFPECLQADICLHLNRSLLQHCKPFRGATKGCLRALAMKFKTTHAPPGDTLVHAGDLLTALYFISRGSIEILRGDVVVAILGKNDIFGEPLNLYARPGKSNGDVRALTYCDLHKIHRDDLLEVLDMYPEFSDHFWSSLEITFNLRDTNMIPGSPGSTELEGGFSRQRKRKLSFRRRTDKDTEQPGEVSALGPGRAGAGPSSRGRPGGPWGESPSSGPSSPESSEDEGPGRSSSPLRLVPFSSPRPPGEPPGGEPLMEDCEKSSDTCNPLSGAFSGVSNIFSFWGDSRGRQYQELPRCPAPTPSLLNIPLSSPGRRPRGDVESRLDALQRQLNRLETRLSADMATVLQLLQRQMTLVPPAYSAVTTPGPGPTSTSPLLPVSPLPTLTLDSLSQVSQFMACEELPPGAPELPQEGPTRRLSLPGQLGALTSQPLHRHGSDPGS
Chain of novel coronavirus envelope protein (2-E) ion channel (P0DTC4 whole entry, looked up): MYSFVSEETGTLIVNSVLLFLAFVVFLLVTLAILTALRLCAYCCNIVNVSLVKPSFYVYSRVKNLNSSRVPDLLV

For orientation: EC50 means the midpoint of the concentration-response curve. By IC50 is commonly meant the concentration needed to halve the response being measured. With “oxyacanthine hydrochloride [reference compound]”, the EC50 in data set [1] is above 10 µM. The IC50 in data set [2] is above 100 µM; with Vero E6 cells (Vero E6 cells, CCK8 kit) it was below 30 µM. The “inhibition of inflammatory factors (IL-6, IL-1β, CXCL9 mRNA) in LPS-induced inflammation model” value in data set [3] is recorded as “significant inhibition”. In addition, the “inhibition of inflammatory factors (mRNA) in TNF-α-induced inflammation model” value in data set [4] was “significant inhibition”. Besides, the “inhibition of injury (damage) factors mRNA in TNF-α-induced A549 lung cell injury model” value in [5] was “significantly inhibited”. In addition, in data set [6], the “alleviation of TGF-β1-induced fibrosis in A549 lung epithelial cells (Collagen1, α-SMA by WB)” value is “partially alleviate fibrosis”.

Regarding `COc1cc2c3cc1Oc1c(OC)c(OC)cc4c1[C@H](Cc1ccc(cc1)Oc1cc(ccc1O)C[C@H]3N(C)CC2)N(C)CC4` [Oxyacanthine, oxyacanthine, reference compound], in [1], the “antiviral activity against novel coronaviruses (background statement)” value is on record as “weak antiviral activity”. Moreover, the “cytotoxicity (background statement)” value in the data set on Vero E6 cells (inventors' screening of natural products) is listed as “high cytotoxicity”. In addition, the “solubility in ethanol, chloroform, ether, dilute acid” value in data set [7] (ethanol, chloroform, ether, dilute acid) is “soluble”. Besides, in data set [7] (water), the solubility in water entry is given as “almost insoluble”.

Turning to `COc1cc2c3cc1Oc1c(OC)c(OC)cc4c1[C@H](Cc1ccc(cc1)Oc1cc(ccc1C(=O)OCCOCCO)C[C@H]3N(C)CC2)N(C)CC4` [Compound 58], in [1] (Severe acute respiratory syndrome coronavirus 2, Vero C1008, Vero E6 cells, MOI 0.01, 24 h p.i., viral copy number by qRT-PCR), the EC50 is 0.1 to 1 µM. Further, the IC50 at hERG potassium channel is 16.5 µM; in data set [8], above 50 µM. Moreover, the “cytotoxicity on Vero E6 cells compared with oxyacanthine hydrochloride” value in the data set on Vero E6 cells (Vero E6 cells) was “weaker cytotoxicity than oxyacanthine hydrochloride”. For the same compound, the “cell viability in LPS-induced inflammation model” value in the data set on Raw 264.7 cells [9] is “did not affect cell viability”. The “inhibition of inflammatory factors (IL-6, IL-1β, CXCL9 mRNA) in LPS-induced inflammation model” value in data set [3] is listed as “significantly inhibited inflammatory factors; also recorded: significant inhibition”. The “cell viability in TNF-α-induced inflammation model” value in the data set on Raw 264.7 cells [10] is “did not affect cell viability”. Further, the “inhibition of inflammatory factors (mRNA) in TNF-α-induced inflammation model” value in [4] is “significantly inhibited inflammatory factors; also recorded: significant inhibition”. Further, the “inhibition of injury (damage) factors mRNA in TNF-α-induced A549 lung cell injury model” value in [5] is listed as “significantly inhibited the damage factors”. For the same compound, in the data set with ALM12 hepatocytes, the “alleviation of H2O2-induced ALM12 hepatocyte injury” value is on record as “significantly alleviated”. Besides, the “inhibitory effect on Th1/Th17 differentiation” value in [11] is given as “strong inhibitory effect”.
